Measurements taken from patent publication US20120070486A1, “METHODS AND COMPOSITIONS RELATED TO PREFOLDIN AND ITS REGULATION” (priority 2007, published 2012).

What was measured:
SKOV3-TR cell line = assay: docetaxel IC50 in chemoresistant SKOV3-TR cell line; format: cell-based; settings: Homo sapiens, SKOV3TR
HeyA8-MDR cell line = assay: docetaxel IC50 in chemoresistant HeyA8-MDR cell line; format: cell-based; settings: Homo sapiens
HeyA8 cell line = assay: docetaxel IC50 in chemosensitive parental HeyA8 cell line; format: cell-based; settings: Homo sapiens, HEY A8, one range printed for HeyA8 and SKOV3
SKOV3 cell line = assay: docetaxel IC50 in chemosensitive parental SKOV3 cell line; format: cell-based; settings: Homo sapiens, SK-OV-3, one range printed for HeyA8 and SKOV3
[1] = test system: microtubule cytoskeleton of SKOV3 cells; assay: indirect immunofluorescent staining for α-tubulin of the microtubule cytoskeleton after siRNA transfection; format: cell-based, human; settings: 48 hours following transfection, fluorescent microscopy, compared to control siRNA
Procedure: RNA interference: PFDN4 siRNA (sense: […] (SEQ ID NO:6); antisense: […] (SEQ ID NO:7)) and AllStars Negative Control siRNA were purchased from Qiagen (Valencia, Calif.). HeyA8 and SKOV3 were grown to 50% confluence prior to transfection with control or PFDN4 siRNA using Lipofectamine 2000 (Invitrogen, Valencia, Calif.) following manufacturer's instruction. Cells were typically harvested for analysis 48-72 hours following transfection. Immunofluorescent staining HeyA8 and SKOV3 cells were grown on glass coverslips in 24-well plates for 24 hours prior to transfection with either control or PFDN4 siRNA, and cultured for an additional 48 hours. Media was then aspirated and replaced with 0.5 mL of 4% paraformaldehyde for 30 minutes. Cells were then incubated with 100 mM glycine for 5 minutes, washed once with PBS and then incubated with 0.2% TritonX-100 in PBS for 10 minutes. Coverslips were washed thrice in PBS and then blocked for 30 minutes in 10% goat serum in PBS. Coverslips were then incubated with a 1:2000 dilution of anti-α-tubulin antibodies for 1.5 hours at room temperature. Slides were washed three times with PBS and then incubated for 1 hour with Alexa 555-labelled anti-rabbit secondary antibodies. Coverslips were washed twice with PBS and finally mounted in anti-fade mounting media and then visualized by fluorescence microscopy. […]

PFDN4 protein = assay: siRNA mediated silencing of PFDN4 protein expression in SKOV3 cells (western blot); format: cell-based, human; settings: in vitro, by 48 hours
Procedure: Immunoprecipitation and Western Blot Analysis: Each 10 cm plate of cells was lysed in 1 mL NP-40 lysis buffer (50 mM Hepes, pH 7.25, 150 mM NaCl, […], 50 mM NaF, 2 mM EDTA, 1 mM sodium orthovanadate, 1% NP-40), supplemented with Roche complete protease inhibitors (Roche Diagnostics, Indianapolis, Ind.). Cell lysates were cleared by centrifugation at 14000 g for 15 minutes at 4° C. Protein concentration was determined using the BCA Protein Assay (Pierce Biotechnology, Rockford, Ill.). 1 mg total protein lysate was combined with 50 μL of 20% Protein A Sepharose CL4B beads (Amersham Biosciences, Piscataway, N.J.) and 1 μg of anti-PFDN4 antibody. […]
(§1) RNA interference: PFDN4 siRNA (sense: […] (SEQ ID NO:6); antisense: […] (SEQ ID NO:7)) and AllStars Negative Control siRNA were purchased from Qiagen (Valencia, Calif.). […] Coverslips were washed twice with PBS and finally mounted in anti-fade mounting media and then visualized by fluorescence microscopy.
To determine the effect of PFDN4 downregulation in ovarian cancer in vitro, the inventors utilized RNA interference (RNAi) technology to silence PFDN4 expression in ovarian cancer cells. […] Using an RT-PCR based screen, the inventors detected a decrease in PFDN4 mRNA within 4 hours following transfection, with greater than 90% silencing observed by 24 hours following transfection (FIG. 5).

PFDN4 mRNA = assay: RT-PCR screen of siRNA mediated gene silencing of PFDN4 in SKOV3 cells; format: cell-based, human
Procedure: RT-PCR: RT-PCR RNA was extracted from ovarian cancer cell lines using TRIzo10 (Invitrogen, Carlsbad, Calif.) as per manufacturer's instructions. 2 μg of total mRNA was reverse transcribed using the Superscript first strand kit (Superscript, Invitrogen, Carlsbad, Calif.), and 2 μL from each reaction was subjected to PCR using standard techniques. PFDN4 primers generated a 413 by product (PFDN4 forward: […] (SEQ ID NO:1); PFDN4 reverse: […] (SEQ ID NO:2)). GAPDH primers generated an approximately 800 by product (GAPDH forward:[…] (SEQ ID NO:3); GAPDH reverse: […] (SEQ ID NO:4)). Semi-quantitative cycling conditions were optimized to the following program: 98° C. for 2 minutes followed by 22 cycles at 95° C. for 30 seconds, 55° C. for 30 seconds and 72° C. for 60 seconds, followed by a final cycle at 72° C. for 5 minutes. PCR products were visualized by agarose gel electrophoresis.
as §1, with “Calif.). HeyA8 and SKOV3 were grown to 50% confluence prior to transfection with control or PFDN4 siRNA using Lipofectamine 2000 (Invitrogen, Valencia, Calif.) following manufacturer's instruction.” for “Calif.).”, “microscopy. […]” for “microscopy.”

IC50 (SKOV3-TR cell line) [nM] | IC50 (HeyA8-MDR cell line) [nM] | Compound | IC50 (HeyA8 cell line) [nM] | IC50 (SKOV3 cell line) [nM] | morphology of microtubule cytoskeleton [1] | down-regulation in PFDN4 protein production (PFDN4 protein) | time to detected decrease in PFDN4 mRNA following transfection (PFDN4 mRNA) [h] | PFDN4 mRNA silencing (PFDN4 mRNA; by 24 hours following transfection)
≥ 250 | ≥ 250 | CC(=O)O[C@@]12CO[C@@H]1C[C@H](O)[C@@]1(C)C(=O)[C@H](O)C3=C(C)[C@@H](OC(=O)[C@H](O)[C@@H](NC(=O)OC(C)(C)C)c4ccccc4)C[C@@](O)([C@@H](OC(=O)c4ccccc4)[C@H]21)C3(C)C [docetaxel] | 1 to 6.2 | 1 to 6.2 | – | – | – | –
– | – | PFDN4 siRNA: siRNA, sense UUCAGCGAGUGUUAGCAGATT (SEQ ID NO:6), antisense UCUGCUAACACCGCUGAATT (SEQ ID NO:7), purchased from Qiagen (chemistry not given here) | – | – | less organized (FIG. 7B) and more condensed | detectable down-regulation | ≤ 4 | greater than 90%
